pIC50: −log10 of the molar value. Structures can show the parent of a compound that is named as a salt.
Legend:
[1] = test system: E. coli RNase P RNA, M1 RNA; assay: Inhibition of bacterial RNase P activity, IC50 determination (cleavage of pATSerUG by M1 RNA); format: biochemical; conditions: NI: No inhibition
[2] = test system: Staphylococcus aureus (ATCC25923); assay: MIC, broth microdilution (CLSI), Staphylococcus aureus ATCC25923; conditions: Staphylococcus aureus, ATCC25923, read-out: S. aureus ATCC 25923 MIC
Experimental: Initial minimal inhibitory concentration (MIC) tests were made on two bacterial strains: • Escherichia coli (ATCC25922) • Staphylococcus aureus (ATCC25923).
MIC values were determined using the standard broth microdilution procedure based on the guidelines by the Clinical and Laboratory Standards Institute (CLSI). Briefly, the compounds were dissolved in DMSO to 10 mM. They were diluted in cation-adjusted Mueller-Hinton broth (CAMHB) to four times the highest concentration tested. A serial two-fold dilution in CAMHB was done in microdilution plates. The inoculum of bacterial strain to be tested was prepared by making a suspension of colonies from an 18 to 24 hours old plate in CAMHB. The inoculum was diluted so that, after inoculation, each well contained approximately 5×10^5 CFU/mL. To a volume of 50 μl compound in CA 3 an equal volume of inoculum was added. The tray was sealed in a plastic bag and incubated at 35° C. for 16 to 20 hours. To aid in the detection of growth the dye resazurin was added to a final concentration 0.001% and incubated at room temperature for 1 h. Reduction of resazurin, and therefore bacterial growth, was seen as a change from blue to pink.

[3] = test system: Escherichia coli (ATCC25922); assay: MIC, broth microdilution (CLSI), Escherichia coli; conditions: Escherichia coli, ATCC25922, read-out: E. coli ATCC 25922 MIC, Table XIII

Row | SMILES | pIC50 ([1]; hydrochloride salt) | MIC [2] | MIC [3] | pIC50 [1]
1 | Cc1cccc(C(CC(=O)NC2CCC(N)CC2)c2cn(CC3CCCCC3)c3cc(Br)ccc23)c1.Cl [Compound 175, N-((1S,4S)-4-aminocyclohexyl)-3-(6-bromo-1-(cyclohexylmethyl)-1H-indol-3-yl)-3-(m-tolyl)propanamide hydrochloride salt] | 4.23 | 2 µg/mL | > 512 µg/mL | 
2 | Cc1ccc(C(CC(=O)NC2CCC(N)CC2)c2cn(CC3CCCCC3)c3ccccc23)cc1.Cl [Compound 140, N-((1S,4S)-4-aminocyclohexyl)-3-(1-(cyclohexylmethyl)-1H-indol-3-yl)-3-(p-tolyl)propanamide hydrochloride salt] |  | 8 µg/mL | 64 µg/mL | 4.47
3 | Cc1cccc(C(CC(=O)NCCC2CCNCC2)c2cn(CC3CCCCC3)c3ccccc23)c1.Cl (stereo not drawn) [Compound 92, 3-(1-(cyclohexylmethyl)-1H-indol-3-yl)-N-(2-(piperidin-4-yl)ethyl)-3-(m-tolyl)propanamide hydrochloride salt] |  | 16 µg/mL | 64 µg/mL | 4.35
4 | Cc1cccc(C(CC(=O)NC2CCC(N)CC2)c2c(C)n(CC3CCCCC3)c3ccccc23)c1.Cl [Compound 243, N-((1S,4S)-4-aminocyclohexyl)-3-(1-(cyclohexylmethyl)-2-methyl-1H-indol-3-yl)-3-(m-tolyl)propanamide hydrochloride salt] |  | 17 µg/mL | > 512 µg/mL | 4.46
5 | Cc1cccc(C(CC(=O)NC2CCNCC2)c2cn(CC3CCCCC3)c3ccc(Br)cc23)c1.Cl (stereo not drawn) [Compound 121, 3-(5-bromo-1-(cyclohexylmethyl)-1H-indol-3-yl)-N-(piperidin-4-yl)-3-(m-tolyl) propanamide hydrochloride salt] |  | 8 µg/mL | 256 µg/mL | 5.10
6 | Cl.N[C@H]1CC[C@H](NC(=O)CCc2cn(CC3CCCCC3)c3ccc(-c4ccccc4OC(F)(F)F)cc23)CC1 [Compound 231, N-((1R,4R)-4-aminocyclohexyl)-3-(1-(cyclohexylmethyl)-5-(2-(trifluoromethoxy)phenyl)-1H-indol-3-yl) propanamide hydrochloride salt] |  | 5 µg/mL | > 512 µg/mL | 5.36
7 | Cc1cccc(C(CC(=O)N2CCC(CCN)CC2)c2cn(CC3CCCCC3)c3ccccc23)c1.Cl (stereo not drawn) [Compound 181, 1-(4-(2-aminoethyl)piperidin-1-yl)-3-(1-(cyclohexylmethyl)-1H-indol-3-yl)-3-(m-tolyl)propan-1-one hydrochloride salt] |  | 17 µg/mL | 134 µg/mL | 4.96
8 | Cc1cccc(C(CC(=O)NCC2CCNCC2)c2cn(Cc3ccccc3)c3ncccc23)c1.Cl (stereo not drawn) [Compound 69, 3-(1-benzyl-1H-pyrrolo[2,3-b]pyridin-3-yl)-N-(piperidin-4-ylmethyl)-3-(m-tolyl)propanamide hydrochloride salt] |  | > 512 µg/mL | > 512 µg/mL | 3.08
9 | Cc1cccc(C(CC(=O)N(C)C2CCNCC2)c2cn(CC3CCCCC3)c3ccc(Br)cc23)c1.Cl (stereo not drawn) [Compound 278, 3-(5-bromo-1-(cyclohexylmethyl)-1H-indol-3-yl)-N-methyl-N-(piperidin-4-yl)-3-(m-tolyl)propanamide hydrochloride salt] |  | 2 µg/mL | > 512 µg/mL | 4.82
10 | Cc1cccc(C(CC(=O)N[C@H]2CC[C@H](N)CC2)c2cn(Cc3ccccc3)c3ccccc23)c1.Cl (stereo partly drawn) [Compound 64, N-((1R,4R)-4-aminocyclohexyl)-3-(1-benzyl-1H-indol-3-yl)-3-(m-tolyl)propanamide salt] |  | 64 µg/mL | > 512 µg/mL | 4.24
11 | Cc1cccc(C(CC(=O)N[C@H]2CC[C@H](N)CC2)c2cn(CC3CCCCC3)c3ccc(-c4ccccc4Cl)cc23)c1.Cl (stereo partly drawn) [Compound 205, N-((1R,4R)-4-aminocyclohexyl)-3-(5-(2-chlorophenyl)-1-(cyclohexylmethyl)-1H-indol-3-yl)-3-(m-tolyl)propanamide hydrochloride salt] |  | 158 µg/mL | > 512 µg/mL | 5.49
12 | Cl.N[C@H]1CC[C@H](NC(=O)CC(c2cc(Cl)cc(Cl)c2)c2cn(CC3CCCCC3)c3ccccc23)CC1 (stereo partly drawn) [Compound 136, N-((1r,4r)-4-aminocyclohexyl)-3-(1-(cyclohexylmethyl)-1H-indol-3-yl)-3-(3,5-dichlorophenyl) propanamide hydrochloride salt] |  | 64 µg/mL | > 512 µg/mL | 5.05
13 | Cc1cccc(-c2ccc3c(c2)c(C(=O)N[C@H]2CC[C@H](N)CC2)cn3CC2CCCCC2)c1.Cl [Compound 269, N-((1r,4r)-4-aminocyclohexyl)-1-(cyclohexylmethyl)-5-(m-tolyl)-1H-indole-3-carboxamide hydrochloride salt] |  | 8 µg/mL | > 512 µg/mL | 4.54
14 | COc1cccc(C(CC(=O)NCCC2CCNCC2)c2cn(Cc3ccccc3)c3ccccc23)c1.Cl (stereo not drawn) [Compound 68, 3-(1-benzyl-1H-indol-3-yl)-3-(3-methoxyphenyl)-N-(2-(piperidin-4-yl)ethyl)propanamide hydrochloride salt] |  | 68 µg/mL | > 512 µg/mL | 3.70
15 | COc1cccc(C(CC(=O)N[C@H]2CC[C@@H](N)CC2)c2cn(Cc3ccccc3)c3ccccc23)c1.Cl (stereo partly drawn) [Compound 66, N-((1S,4S)-4-aminocyclohexyl)-3-(1-benzyl-1H-indol-3-yl)-3-(3-methoxyphenyl) propanamide hydrochloride salt] |  | 33 µg/mL | 133 µg/mL | 3.71
16 | COc1cc(C)cc(C(CC(=O)N[C@H]2CC[C@H](N)CC2)c2cn(CC3CCCCC3)c3ccccc23)c1.Cl (stereo partly drawn) [Compound 133, N-((1R,4R)-4-aminocyclohexyl)-3-(1-(cyclohexylmethyl)-1H-indol-3-yl)-3-(3-methoxy-5-methylphenyl) propanamide hydrochloride salt] |  | > 512 µg/mL | > 512 µg/mL | 4.12
17 | Cc1cccc(C(CC(=O)N[C@H]2CC[C@H](N)CC2)c2cn(Cc3ccccc3)c3ncccc23)c1.Cl (stereo partly drawn) [Compound 71, N-((1R,4R)-4-aminocyclohexyl)-3-(1-benzyl-1H-pyrrolo[2,3-b]pyridin-3-yl)-3-(m-tolyl)propanamide hydrochloride salt] |  | 258 µg/mL | > 512 µg/mL | 3.57
18 | Cc1cccc(C(CC(=O)N[C@H]2CC[C@H](N)CC2)c2cn(CCC3CCCCC3)c3ccccc23)c1.Cl (stereo partly drawn) [Compound 113, N-((1R,4R)-4-aminocyclohexyl)-3-(1-(2-cyclohexylethyl)-1H-indol-3-yl)-3-(m-tolyl)propanamide hydrochloride salt] |  | 32 µg/mL | 512 µg/mL | 4.85
19 | Cc1cccc(-c2ccc3c(c2)c(CCCN[C@H]2CC[C@H](N)CC2)cn3CC2CCCCC2)c1 [Compound 207, (1R,4R)-N1-(3-(1-(cyclohexylmethyl)-5-(m-tolyl)-1H-indol-3-yl)propyl)cyclohexane-1,4-diamine hydrochloride salt] |  | 4 µg/mL | 4 µg/mL | 4.77
20 | Cc1cccc(C(CC(=O)NC2CCC(N)CC2)c2cn(CC3CCCCC3)c3ccc(-c4ccnn4C)cc23)c1.Cl (stereo not drawn) [Compound 183, N-(4-aminocyclohexyl)-3-(1-(cyclohexylmethyl)-5-(1-methyl-1H-pyrazol-5-yl)-1H-indol-3-yl)-3-(m-tolyl)propanamide hydrochloride salt] |  | 9 µg/mL | 151 µg/mL | 4.77
21 | COc1ccc2c(c1)c(C(CC(=O)NC1CCC(N)CC1)c1cccc(C)c1)cn2CC1CCCCC1.Cl [Compound 151, N-((1S,4S)-4-aminocyclohexyl)-3-(1-(cyclohexylmethyl)-5-methoxy-1H-indol-3-yl)-3-(m-tolyl)propanamide hydrochloride salt] |  | 16 µg/mL | 128 µg/mL | 4.35
22 | N[C@H]1CC[C@H](CN2CCC(c3cn(CC4CCCCC4)c4ccccc34)CC2)CC1 [Compound 217, (1R,4R)-4-((4-(1-(cyclohexylmethyl)-1H-indol-3-yl)piperidin-1-yl)methyl)cyclohexan-1-amine hydrochloride salt] |  | 8 µg/mL | 31 µg/mL | 3.88
23 | Cc1cccc(C(CCNC2CCC(N)CC2)c2cn(CC3CCCCC3)c3ccc(Br)cc23)c1 [Compound 169, (1S,4S)-N1-(3-(5-bromo-1-(cyclohexylmethyl)-1H-indol-3-yl)-3-(m-tolyl)propyl)cyclohexane-1,4-diamine hydrochloride salt] |  | 2 µg/mL | 5 µg/mL | 4.68
24 | Cc1cccc(C(CC(=O)NC2CCNCC2)c2cn(CC3CCCCC3)c3ccc(F)cc23)c1.Cl (stereo not drawn) [Compound 118, 3-(1-(cyclohexylmethyl)-5-fluoro-1H-indol-3-yl)-N-(piperidin-4-yl)-3-(m-tolyl)propanamide hydrochloride salt] |  | 8 µg/mL | 32 µg/mL | 4.41
25 | N[C@H]1CC[C@H](NC2CCC(c3cn(CC4CCCCC4)c4ccc(Br)cc34)CC2)CC1 (single isomer, unassigned) [Compound 265, (1r,4r)-N1-(4-(5-bromo-1-(cyclohexylmethyl)-1H-indol-3-yl)cyclohexyl)cyclohexane-1,4-diamine hydrochloride salt] | 4.82 | 2 µg/mL | 2 µg/mL | 
26 | Cc1cccc(C(CC(=O)N[C@H]2CC[C@H](N)CC2)c2cn(CC3CCCCC3)c3ccccc23)c1.Cl (stereo partly drawn) [Compound 104, N-((1R,4R)-4-aminocyclohexyl)-3-(1-(cyclohexylmethyl)-1H-indol-3-yl)-3-(m-tolyl)propanamide hydrochloride salt] |  | 8 µg/mL | 64 µg/mL | 4.80
27 | FC1(F)CCC(Cn2cc(CCNC3CCNCC3)c3cc(Br)ccc32)CC1 [Compound 290, N-(2-(5-bromo-1-((4,4-difluorocyclohexyl)methyl)-1H-indol-3-yl)ethyl)piperidin-4-amine hydrochloride salt] |  | 17 µg/mL | 17 µg/mL | 4.21

— US20210246115A1 (Bioimics AB, priority 2017, published 2021)
